Article PMC3891991, “Synthesis and molecular modeling of six novel monastrol analogues: evaluation of cytotoxicity and kinesin inhibitory activity against HeLa cell line” (DARU Journal of Pharmaceutical Sciences, 2013)
Converted amounts (≈) assume the structure as drawn.

How the values were obtained:
[1] = target: T1, kinesin heavy chain Motor (Homo sapiens, UniProt P33176); test: Kinesin ATPase activity assay (ELIPA kit, inorganic phosphate); format: biochemical; details: ATPase activity of kinesin, n = 2, read-out: IC 50 (μg/ml) for Kinesin inhibition (converted)
T1 construct: kinesin heavy chain Motor (Cytoskeleton, Cat # KR01-A); purchased Cytoskeleton KR01-A
T1 sequence (P33176 8-325 limits assumed): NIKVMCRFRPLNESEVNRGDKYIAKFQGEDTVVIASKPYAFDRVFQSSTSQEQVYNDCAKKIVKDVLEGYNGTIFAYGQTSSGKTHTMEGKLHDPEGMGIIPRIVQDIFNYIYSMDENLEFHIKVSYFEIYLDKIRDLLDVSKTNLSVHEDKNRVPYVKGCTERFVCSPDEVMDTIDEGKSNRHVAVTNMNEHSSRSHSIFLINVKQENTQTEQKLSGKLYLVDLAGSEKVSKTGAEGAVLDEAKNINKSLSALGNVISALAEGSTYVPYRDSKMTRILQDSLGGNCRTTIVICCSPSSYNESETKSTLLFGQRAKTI

[2] = tested on: HeLa cell line; test: MTT cytotoxicity assay on HeLa cells; details: Homo sapiens, 24 h, read-out: IC 50 (μg/ml) ± SD on HeLa cell line
Procedure: HeLa cell line was obtained from National Cell Bank of Iran, Pasteur Institute of Iran.
Cytotoxic effects of synthesized compounds were determined using the MTT [3-(4,5-dimethylthiazol-2-yl)-2,5-diphenyltetrazolium bromide] assay [18-20]. Briefly, 5000 HeLa cells/well were seeded in a 96-well plate and cultured overnight. Different concentrations of synthesized compounds were added to each well. […] Then, the medium was removed, and the purple formazan crystals were dissolved in 150 μl dimethylsulfoxide (Merck, Germany). Absorbance was measured at 545 nm (630 nm as a reference) in Synergy H4 Hybrid Multi-Mode Microplate Reader (Biotek, Model: H4MLFPTAD). IC50 was calculated using CalcuSyn (BioSoft).
HeLa cells were incubated with different concentrations of newly synthesized compounds for 24 h and cytotoxicities were evaluated using MTT assay.

SMILES | IC50 [1] | melting point | IC50 [2]
CSc1ncc(C2NC(=O)NC3=C2C(=O)CC(C)(C)C3)n1Cc1ccccc1 (stereo not drawn) [Compound 4a, 4-[1-benzyl-2-(methylthio)-1H-imidazol-5-yl)-3,4,7,8-tetrahydro-7,7 dimethyl-quinazoline-2,5-(1H,6H)-diones] | 182 µM | 169 °C | 210 ± 21 µg/mL (≈ 530 µM)
CSc1ncc(C2NC(=S)NC3=C2C(=O)CC(C)(C)C3)n1Cc1ccccc1 (stereo not drawn) [Compound 4b, 4-[1-benzyl-2-(methylthio)-1H-imidazol-5-yl)-1,2,3,4,7,8-hexahydro-7,7 dimethyl-2-thio oxoquinazoline-5-(6H)-one] | 187 µM | 157 °C | 301 ± 22 µg/mL (≈ 730 µM)
CSc1ncc(C2NC(=O)NC3=C2C(=O)CC(C)(C)C3)n1Cc1ccccc1Cl (stereo not drawn) [Compound 4c, 4-[1-(2-chlorobenzyl)-2-(methylthio)-1H-imidazol-5-yl]-3,4,7,8-tetrahydro-7,7 dimethyl quinazoline-2,5-(1H,6H)-diones] | 183 µM | 149 °C | 98 ± 19 µg/mL (≈ 227 µM)
CSc1ncc(C2NC(=S)NC3=C2C(=O)CC(C)(C)C3)n1Cc1ccccc1Cl (stereo not drawn) [Compound 4d, 4-[1-(2-chlorobenyl)-2-methylthio-1H-imidazol-5-yl]-1,2,3,4,7,8-hexahydro-7,7 dimethyl-2-thio oxoquinazoline-5-(6H)-one] |  | 142 °C | 
CSc1ncc(C2NC(=O)NC3=C2C(=O)CC(C)(C)C3)n1Cc1ccc(F)cc1 (stereo not drawn) [Compound 4e, 4-[1-(4-fluorobenzyl)-2-(methylthio)-1H-imidazol-5-yl]-3,4,7,8 – tetrahydro-7,7 dimethyl quinazoline-2,5-(1H,6H)-diones] | 232 µM | 82 °C | 110 ± 28 µg/mL (≈ 265 µM)
CSc1ncc(C2NC(=S)NC3=C2C(=O)CC(C)(C)C3)n1Cc1ccc(F)cc1 (stereo not drawn) [Compound 4f, 4-[1-(4-fluorobenzyl)-2-methylthio-1H-imidazol-5-yl]-1,2,3,4,7,8-hexahydro-7,7-dimethyl-2-thiooxoquinazoline-5-(6H)-one] | 460 µM | 149 °C | 339 ± 23 µg/mL (≈ 787 µM)
CC(=O)O[C@H]1C(=O)[C@@]2(C)[C@H]([C@H](OC(=O)c3ccccc3)[C@]3(O)C[C@H](OC(=O)[C@H](O)[C@@H](NC(=O)c4ccccc4)c4ccccc4)C(C)=C1C3(C)C)[C@]1(OC(C)=O)CO[C@@H]1C[C@@H]2O [Taxol, reference compound] | 8.2 µM |  | 
CC1(C)CC(=O)C2=C(C1)NC(=S)NC2c1cccc(O)c1 (stereo not drawn) [dimethylenastrone, dimethylenastron, reference compound] |  |  | 338 ± 26 µg/mL (≈ 1120 µM)
